Results reported in PMC11097166, “Imidazole-Derived Alkyl and Aryl Ethers: Synthesis, Characterization, In Vitro Anticancer and Antioxidant Activities, Carbonic Anhydrase I–II Inhibition Properties, and In Silico Studies” (ACS Omega, 2024).
Where two headings read alike, the source gives them in different places.

Assays:
[1] = system: MCF7 human breast adenocarcinoma cell line; experiment: MTT cell viability assay on MCF7; assay type: cell-based
Text: (§1) 96-well plates were used for seeding cells. […] All compounds were run in three repetitions.

[2] = system: HT29 cell line; experiment: Annexin V binding assay (flow cytometry) on HT29; assay type: cell-based, human; conditions: HT29, IC50 dose, 24 h
Procedure: (§2) Approximately 5 × 10^5 seeds of each cancer cell were seeded into six-well plates and allowed to adhere overnight. […] Cells harvested after trypsinization were suspended in PBS containing at least 1% FBS. The manufacturer’s instructions were then followed, and the Annexin V and dead cell reagent were mixed with the cells. Afterward, the percentage of dead, viable, early and late apoptotic cells was determined using the muse cell analyzer (Millipore) device.

[3] = target: hCA I (Homo sapiens, UniProt P00915); experiment: CA esterase activity method, hCA I; assay type: biochemical; conditions: for Effect on hCA I isoenzyme activity: Table S3; for IC50: esterase activity, p-nitrophenyl acetate substrate; on Effect on hCA I isoenzyme activity: key: +: active; -: not effect
hCA I, sequence (P00915 whole entry): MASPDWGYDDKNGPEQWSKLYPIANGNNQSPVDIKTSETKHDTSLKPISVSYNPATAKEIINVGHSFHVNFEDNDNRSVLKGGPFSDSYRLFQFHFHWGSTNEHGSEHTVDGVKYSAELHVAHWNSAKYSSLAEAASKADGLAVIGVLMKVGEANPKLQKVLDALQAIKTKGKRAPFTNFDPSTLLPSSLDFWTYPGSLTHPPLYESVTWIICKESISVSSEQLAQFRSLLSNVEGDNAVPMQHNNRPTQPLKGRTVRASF
Text: (§3) The method used to spectrophotometrically detect the antiepileptic, antiglaucoma, and […] effects of the obtained compounds in vitro is the esterase activity method. This method relies on the esterase activity of CA for the hydrolysis of p-nitrophenyl acetate as a substrate, which is a part of the reaction mechanism involving p-nitrophenol or p-nitrophenolate.

[4] = target: hCA II (Homo sapiens, UniProt P00918); experiment: CA esterase activity method, hCA II; assay type: biochemical; conditions: for Effect on hCA II isoenzyme activity: Table S3; for IC50: esterase activity, p-nitrophenyl acetate substrate; on Effect on hCA II isoenzyme activity: key: +: active; -: not effect
Text: as §3

[5] = system: HT29 cell line; experiment: Cell cycle (DNA content) assay on HT29; assay type: cell-based, human; conditions: colon cancer (HT29), IC50 dose
Procedure: (§4) DNA content (cell cycle) analyses were performed with the MUSE flow cytometry device. When the IC50 results obtained were evaluated, compounds 3a and 3b caused selective toxicity in the HT29 and C6 cancer cell lines compared to L929, respectively. Therefore, the main pathways of compounds 3a and 3b in cells were determined with the MUSE (cell cycle) kit.

[6] = system: C6 rat glial tumor cell line; experiment: MTT cell viability assay on C6; assay type: cell-based; conditions: 24 h incubation
Text: as §1

[7] = system: L929 healthy mouse fibroblast cells; experiment: Annexin V binding assay (flow cytometry) on L929; assay type: cell-based; conditions: L929, IC50 dose of the compound for the cancer cell line, 24 h
Procedure: as §2

[8] = FRAP antioxidant assay; conditions: trolox standard curve
Procedure: The FRAP method was used to determine the antioxidant power of compounds. This method, which determines the reducing power of compounds, was developed by Benzie and Strain.[48] Fe(III)–TPTZ complex is formed as a result of the reaction of Fe(III) with tripyridyltriazine (TPTZ), and this complex is reduced to the Fe(II)–TPTZ complex with the antioxidant in the environment. The color of this complex is dark blue and gives the maximum absorbance at 593 nm.[48] Incubation is performed for up to 30 min to complete the reaction, and the correct absorbance values were read. The FRAP values of the samples were calculated as “μmol trolox equiv/g sample” with the help of the standard curve obtained using methanol–trolox standard solutions (0; 0.2; 0.4; 0.6; 0.8; and 1.0 μmol/mL) which were used as the positive control.[49] […]

[9] = system: HT29 colon cancer cell line; experiment: MTT cell viability assay on HT29; assay type: cell-based, human
Text: as §1

[10] = MTT cell viability assay on L929; conditions: mouse, L929 fibroblast cells
Procedure: (§5) Human breast adenocarcinoma cell line (MCF7), rat glial tumor cell line (C6), healthy mouse fibroblast cell line (L929), and colon cancer (HT29) cell line were purchased from ATCC (American type culture collection) and studied.
(§6) The cytotoxic effects of all compounds by MTT analysis on L929, HT29, MCF7, and C6 cell lines were investigated. 96-well plates were used for seeding cells. Approximately 1 × 10^4 cells were seeded in each well. Cells were allowed to adhere for 24 h, and then the compounds were applied at different concentrations. All compounds were run in three repetitions. Wells with a maximum of 100 μM compounds were incubated for 24 h. Three wells without compounds treated with only DMSO (with total volume of % 0.5) were used as negative controls, and cisplatin was used as a positive control. […] After the MTT interaction, the FRAP wells were emptied, and DMSO solution was placed in them. The formazan crystals formed were dissolved with this solution, and the number of viable cells in each well was determined by color change.

[11] = system: L929 mouse fibroblast cell line; experiment: MTT cell viability assay on L929; conditions: for toxicity in L929 healthy cell line: 100 μM, 24 h, triplicate; for IC50: read-out: IC50 L929
Procedure: as §5, §6

[12] = system: C6 cell line; experiment: Annexin V binding assay (flow cytometry) on C6; assay type: cell-based, rat; conditions: C6, IC50 dose, 24 h
Procedure: as §2

[13] = system: C6 cell line; experiment: Cell cycle (DNA content) assay on C6; assay type: cell-based, rat; conditions: glioblastoma (C6), IC50 dose
Procedure: as §4

[14] = Homo sapiens, MCF7, 24 h incubation
[15] = Homo sapiens, HT-29, 24 h incubation

## O=C(Cn1ccnc1)c1ccccc1 [Compound 3a, 2-(1H-Imidazol-1-yl)-1-phenylethanone]
[1]; [14]
  IC50: 161 ± 15.5 µM
[2]
  Apoptosis profile: Early Apop.: 7.83%
  Apoptosis profile: Late Apop./Dead: 22.56%
  Apoptosis profile: Live: 60.77%
[3]
  Effect on hCA I isoenzyme activity: -
[4]
  Effect on hCA II isoenzyme activity: -
[5]
  phase in which the cell cycle stopped: G0/G1 phase
[6]; Rattus norvegicus, 24 h
  IC50: 15.76 ± 0.08 µM
[7]
  Apoptosis profile: Live: 98.37%
[8]
  FRAP: 0.18 ± 0.07 μmol trolox equiv/g
[9]; [15]
  IC50: 20.9 ± 1.02 µM
[10]
  viability at 24 h, 100 μM: ≥ 50%
[11]; MTT
  toxicity in L929 healthy cell line: not toxic
[11]; Mus musculus, L929, 24 h
  IC50: 174 ± 10.1 µM

## O=C(Cn1ccnc1)c1ccc(Cl)cc1 [Compound 3b, 1-(4-Chlorophenyl)-2-(1H-imidazol-1-yl)ethanone]
[1]; [14]
  IC50: 117 ± 14.5 µM
[3]
  Effect on hCA I isoenzyme activity: -
[4]
  Effect on hCA II isoenzyme activity: -
[12]
  Apoptosis profile: Early Apop.: 14.96%
  Apoptosis profile: Late Apop./Dead: 18.33%
  Apoptosis profile: Live: 65.46%
[6]
  IC50: 10.7 ± 0.38 µM
[6]; Rattus norvegicus, 24 h
  IC50: 10.7 ± 0.38 µM
[7]
  Apoptosis profile: Live: 99.17%
[13]
  phase in which the cell cycle stopped: G0/G1 phase
[8]
  FRAP: 0.20 ± 0.04 μmol trolox equiv/g
[9]; [15]
  IC50: 59.6 ± 5.73 µM
[10]
  viability at 24 h, 100 μM: ≥ 50%
[11]; MTT
  toxicity in L929 healthy cell line: not toxic
[11]; Mus musculus, L929, 24 h
  IC50: 138 ± 4.06 µM

## COc1ccc(C(=O)Cn2ccnc2)cc1 [Compound 3c, 2-(1H-Imidazol-1-yl)-1-(4-methoxyphenyl)ethanone]
[3]
  Effect on hCA I isoenzyme activity: -
[4]
  Effect on hCA II isoenzyme activity: -
[8]
  FRAP: 0.21 ± 0.03 μmol trolox equiv/g

## OC(Cn1ccnc1)c1ccccc1 (stereo not drawn) [Compound 4a, 2-(1H-Imidazol-1-yl)-1-phenylethanol]
[1]; [14]
  IC50: 104 ± 15.3 µM
[3]
  Effect on hCA I isoenzyme activity: +
[4]
  Effect on hCA II isoenzyme activity: +
[6]; Rattus norvegicus, 24 h
  IC50: 35.2 ± 0.55 µM
[8]
  FRAP: 0.31 ± 0.01 μmol trolox equiv/g
[9]; [15]
  IC50: 74.6 ± 6.67 µM
[10]
  viability at 24 h, 100 μM: ≥ 50%
[11]; MTT
  toxicity in L929 healthy cell line: not toxic
[11]; Mus musculus, L929, 24 h
  IC50: 166 ± 11.9 µM

## OC(Cn1ccnc1)c1ccc(Cl)cc1 (stereo not drawn) [Compound 4b, 1-(4-Chlorophenyl)-2-(1H-imidazol-1-yl)ethanol]
[1]; [14]
  IC50: 84.9 ± 21.5 µM
[3]
  Effect on hCA I isoenzyme activity: +
[4]
  Effect on hCA II isoenzyme activity: +
[6]; Rattus norvegicus, 24 h
  IC50: 20.1 ± 0.32 µM
[8]
  FRAP: 0.25 ± 0.02 μmol trolox equiv/g
[9]; [15]
  IC50: 44.1 ± 4.27 µM
[10]
  viability at 24 h, 100 μM: ≥ 50%
[11]; MTT
  toxicity in L929 healthy cell line: not toxic
[11]; Mus musculus, L929, 24 h
  IC50: 105 ± 10.1 µM

## CCOC(Cn1ccnc1)c1ccccc1 (stereo not drawn) [Compound 7, 1-(2-Ethoxy-2-phenylethyl)-1H-imidazole]
[1]; [14]
  IC50: 122 ± 28.8 µM
[3]
  Effect on hCA I isoenzyme activity: +
[4]
  Effect on hCA II isoenzyme activity: +
[6]; Rattus norvegicus, 24 h
  IC50: 26.1 ± 5.7 µM
[8]
  FRAP: 0.10 ± 0.08 μmol trolox equiv/g
[9]; [15]
  IC50: 102 ± 11.5 µM
[10]
  viability at 24 h, 100 μM: ≥ 50%
[11]; MTT
  toxicity in L929 healthy cell line: not toxic
[11]; Mus musculus, L929, 24 h
  IC50: 173 ± 16.6 µM

## CCCOC(Cn1ccnc1)c1ccccc1 (stereo not drawn) [Compound 8, 1-(2-Phenyl-2-propoxyethyl)-1H-imidazole]
[3]
  Effect on hCA I isoenzyme activity: +
[4]
  Effect on hCA II isoenzyme activity: +
[8]
  FRAP: 0.19 ± 0.02 μmol trolox equiv/g

## C=CCOC(Cn1ccnc1)c1ccccc1 (stereo not drawn) [Compound 9, 1-(2-(Allyloxy)-2-phenylethyl)-1H-imidazole]
[3]
  Effect on hCA I isoenzyme activity: +
[4]
  Effect on hCA II isoenzyme activity: +
[8]
  FRAP: 0.12 ± 0.01 μmol trolox equiv/g

## CCOC(Cn1ccnc1)c1ccc(Cl)cc1 (stereo not drawn) [Compound 10, 1-(2-(4-Chlorophenyl)-2-ethoxyethyl)-1H-imidazole]
[3]
  Effect on hCA I isoenzyme activity: +
[4]
  Effect on hCA II isoenzyme activity: +
[8]
  FRAP: 0.20 ± 0.03 μmol trolox equiv/g

## CCCOC(Cn1ccnc1)c1ccc(Cl)cc1 (stereo not drawn) [Compound 11, 1-(2-(4-Chlorophenyl)-2-propoxyethyl)-1H-imidazole]
[3]
  Effect on hCA I isoenzyme activity: +
[4]
  Effect on hCA II isoenzyme activity: +
[8]
  FRAP: 0.31 ± 0.07 μmol trolox equiv/g

## C=CCOC(Cn1ccnc1)c1ccc(Cl)cc1 (stereo not drawn) [Compound 12, 1-(2-(Allyloxy)-2-(4-chlorophenyl)ethyl)-1H-imidazole]
[3]
  Effect on hCA I isoenzyme activity: +
[4]
  Effect on hCA II isoenzyme activity: +
[8]
  FRAP: 0.28 ± 0.04 μmol trolox equiv/g

## CCOC(Cn1ccnc1)c1ccc(OC)cc1 (stereo not drawn) [Compound 13, 1-(2-Ethoxy-2-(4-methoxyphenyl)ethyl)-1H-imidazole]
[3]
  Effect on hCA I isoenzyme activity: +
[4]
  Effect on hCA II isoenzyme activity: +
[8]
  FRAP: 0.15 ± 0.06 μmol trolox equiv/g

## CCCOC(Cn1ccnc1)c1ccc(OC)cc1 (stereo not drawn) [Compound 14, 1-(2-(4-Methoxyphenyl)-2-propoxyethyl)-1H-imidazole]
[3]
  Effect on hCA I isoenzyme activity: +
[4]
  Effect on hCA II isoenzyme activity: +
[8]
  FRAP: 0.28 ± 0.01 μmol trolox equiv/g

## C=CCOC(Cn1ccnc1)c1ccc(OC)cc1 (stereo not drawn) [Compound 15, 1-(2-(Allyloxy)-2-(4-methoxyphenyl)ethyl)-1H-imidazole]
[3]
  Effect on hCA I isoenzyme activity: +
[4]
  Effect on hCA II isoenzyme activity: +
[8]
  FRAP: 0.31 ± 0.03 μmol trolox equiv/g

## c1ccc(COC(Cn2ccnc2)c2ccccc2)cc1 (stereo not drawn) [Compound 16, 1-(2-(Benzyloxy)-2-phenylethyl)-1H-imidazole]
[3]
  Effect on hCA I isoenzyme activity: +
[4]
  Effect on hCA II isoenzyme activity: +
[8]
  FRAP: 0.41 ± 0.03 μmol trolox equiv/g

## Clc1ccc(COC(Cn2ccnc2)c2ccccc2)cc1 (stereo not drawn) [Compound 17, 1-(2-((4-Chlorobenzyl)oxy)-2-phenylethyl)-1H-imidazole]
[3]
  IC50: 0.0132 µM
[4]
  IC50: 0.0148 µM
[8]
  FRAP: 0.35 ± 0.07 μmol trolox equiv/g

## Cc1ccc(COC(Cn2ccnc2)c2ccccc2)cc1 (stereo not drawn) [Compound 18, 1-(2-((4-Methylbenzyl)oxy)-2-phenylethyl)-1H-imidazole]
[3]
  Effect on hCA I isoenzyme activity: +
[4]
  Effect on hCA II isoenzyme activity: +
[8]
  FRAP: 0.30 ± 0.04 μmol trolox equiv/g

## Clc1ccc(C(Cn2ccnc2)OCc2ccccc2)cc1 (stereo not drawn) [Compound 19, 1-(2-(Benzyloxy)-2-(4-chlorophenyl)ethyl)-1H-imidazole]
[3]
  IC50: 0.0157 µM
[4]
  IC50: 0.0117 µM
[8]
  FRAP: 0.27 ± 0.01 μmol trolox equiv/g

## Clc1ccc(COC(Cn2ccnc2)c2ccc(Cl)cc2)cc1 (stereo not drawn) [Compound 20, 1-(2-((4-Chlorobenzyl)oxy)-2-(4-chlorophenyl)ethyl)-1H-imidazole]
[3]
  IC50: 0.00413 µM
[4]
  IC50: 0.0109 µM
[8]
  FRAP: 0.31 ± 0.06 μmol trolox equiv/g

## Cc1ccc(COC(Cn2ccnc2)c2ccc(Cl)cc2)cc1 (stereo not drawn) [Compound 21, 1-(2-(4-Chlorophenyl)-2-((4-methylbenzyl)oxy)ethyl)-1H-imidazole]
[3]
  IC50: 0.00983 µM
[4]
  IC50: 0.0079 µM
[8]
  FRAP: 0.25 ± 0.01 μmol trolox equiv/g

## COc1ccc(C(Cn2ccnc2)OCc2ccccc2)cc1 (stereo not drawn) [Compound 22, 1-(2-(Benzyloxy)-2-(4-methoxyphenyl)ethyl)-1H-imidazole]
[8]
  FRAP: 0.40 ± 0.05 μmol trolox equiv/g

## COc1ccc(C(Cn2ccnc2)OCc2ccc(Cl)cc2)cc1 (stereo not drawn) [Compound 23, 1-(2-((4-Chlorobenzyl)oxy)-2-(4-methoxyphenyl)ethyl)-1H-imidazole]
[3]
  IC50: 0.00749 µM
[4]
  IC50: 0.00565 µM
other
  melting point: 104 to 105 °C
[8]
  FRAP: 0.45 ± 0.04 μmol trolox equiv/g

## COc1ccc(C(Cn2ccnc2)OCc2ccc(C)cc2)cc1 (stereo not drawn) [Compound 24, 1-(2-(4-Methoxyphenyl)-2-((4-methylbenzyl)oxy)ethyl)-1H-imidazole]
[3]
  IC50: 0.00477 µM
[4]
  IC50: 0.00966 µM
[8]
  FRAP: 0.46 ± 0.06 μmol trolox equiv/g

## N.N.[Cl][Pt][Cl] [cisplatin, reference compound]
[1]; 24 h incubation
  IC50: 26.8 ± 11 µM
[6]
  IC50: 88.2 ± 12.1 µM
[9]; 24 h incubation
  IC50: 68.2 ± 3.39 µM
[11]; 24 h incubation, MTT
  IC50: 277.7 ± 1.09 µM

## vitamin E [reference compound]
[8]
  FRAP: 1.00 ± 0.04 μmol trolox equiv/g
